Source: the NIST ThermoML archive (doi:10.1016/j.fluid.2008.02.021)
± gives the expanded uncertainty stated by the source. One block for each compound: values may come before it.

Key:
[1] = for vapor or sublimation pressure: Liquid, Closed cell (Static) method; for Normal melting temperature: Crystal
[2] = excess molar enthalpy (molar enthalpy of mixing); xn = mol fraction of the nth substance listed; conditions: Liquid, Flow calorimetry

Compound: CCCCCCC(C)=O [2-octanone]
vapor or sublimation pressure ([1]; 323.15 K): 0.8706 ± 0.021 kPa
vapor or sublimation pressure ([1]; 363.15 K): 6.397 ± 0.047 kPa
Normal melting temperature [1]: -19.7 ± 0.3 °C

Compound: OC1CCCCC1 [cyclohexanol]
vapor or sublimation pressure ([1]; 323.15 K): 0.7399 ± 0.016 kPa
vapor or sublimation pressure ([1]; 363.15 K): 6.882 ± 0.039 kPa
Normal melting temperature ([1]; visual observation): 24.1 ± 0.2 °C

Compound: OC1CCCCC1 [cyclohexanol] + O=C1CCCCC1
excess molar enthalpy ([2]; 363.15 K, 1651 kPa, x2 = 0.051): 0.272 ± 0.0037 kJ/mol
excess molar enthalpy ([2]; 363.15 K, 1651 kPa, x2 = 0.102): 0.52 ± 0.0062 kJ/mol
excess molar enthalpy ([2]; 363.15 K, 1651 kPa, x2 = 0.153): 0.734 ± 0.0083 kJ/mol
excess molar enthalpy ([2]; 363.15 K, 1651 kPa, x2 = 0.204): 0.919 ± 0.01 kJ/mol
excess molar enthalpy ([2]; 363.15 K, 1651 kPa, x2 = 0.254): 1.07 ± 0.012 kJ/mol
excess molar enthalpy ([2]; 363.15 K, 1651 kPa, x2 = 0.305): 1.19 ± 0.013 kJ/mol
excess molar enthalpy ([2]; 363.15 K, 1651 kPa, x2 = 0.355): 1.28 ± 0.014 kJ/mol
excess molar enthalpy ([2]; 363.15 K, 1651 kPa, x2 = 0.406): 1.34 ± 0.014 kJ/mol
excess molar enthalpy ([2]; 363.15 K, 1651 kPa, x2 = 0.456): 1.38 ± 0.015 kJ/mol
excess molar enthalpy ([2]; 363.15 K, 1651 kPa, x2 = 0.506): 1.4 ± 0.015 kJ/mol
excess molar enthalpy ([2]; 363.15 K, 1651 kPa, x2 = 0.555): 1.37 ± 0.015 kJ/mol
excess molar enthalpy ([2]; 363.15 K, 1651 kPa, x2 = 0.605): 1.32 ± 0.014 kJ/mol
excess molar enthalpy ([2]; 363.15 K, 1651 kPa, x2 = 0.655): 1.25 ± 0.013 kJ/mol
excess molar enthalpy ([2]; 363.15 K, 1651 kPa, x2 = 0.705): 1.15 ± 0.013 kJ/mol
excess molar enthalpy ([2]; 363.15 K, 1651 kPa, x2 = 0.754): 1.02 ± 0.011 kJ/mol
excess molar enthalpy ([2]; 363.15 K, 1651 kPa, x2 = 0.803): 0.87 ± 0.0097 kJ/mol
excess molar enthalpy ([2]; 363.15 K, 1651 kPa, x2 = 0.853): 0.688 ± 0.0079 kJ/mol
excess molar enthalpy ([2]; 363.15 K, 1651 kPa, x2 = 0.902): 0.482 ± 0.0058 kJ/mol
excess molar enthalpy ([2]; 363.15 K, 1651 kPa, x2 = 0.951): 0.249 ± 0.0035 kJ/mol
excess molar enthalpy ([2]; 413.15 K, 1582 kPa, x2 = 0.051): 0.163 ± 0.0026 kJ/mol
excess molar enthalpy ([2]; 413.15 K, 1582 kPa, x2 = 0.102): 0.311 ± 0.0041 kJ/mol
excess molar enthalpy ([2]; 413.15 K, 1582 kPa, x2 = 0.153): 0.444 ± 0.0054 kJ/mol
excess molar enthalpy ([2]; 413.15 K, 1582 kPa, x2 = 0.203): 0.561 ± 0.0066 kJ/mol
excess molar enthalpy ([2]; 413.15 K, 1582 kPa, x2 = 0.254): 0.657 ± 0.0076 kJ/mol
excess molar enthalpy ([2]; 413.15 K, 1582 kPa, x2 = 0.304): 0.733 ± 0.0083 kJ/mol
excess molar enthalpy ([2]; 413.15 K, 1582 kPa, x2 = 0.355): 0.794 ± 0.0089 kJ/mol
excess molar enthalpy ([2]; 413.15 K, 1582 kPa, x2 = 0.405): 0.832 ± 0.0093 kJ/mol
excess molar enthalpy ([2]; 413.15 K, 1582 kPa, x2 = 0.455): 0.852 ± 0.0095 kJ/mol
excess molar enthalpy ([2]; 413.15 K, 1582 kPa, x2 = 0.505): 0.863 ± 0.0096 kJ/mol
excess molar enthalpy ([2]; 413.15 K, 1582 kPa, x2 = 0.555): 0.846 ± 0.0095 kJ/mol
excess molar enthalpy ([2]; 413.15 K, 1582 kPa, x2 = 0.605): 0.817 ± 0.0092 kJ/mol
excess molar enthalpy ([2]; 413.15 K, 1582 kPa, x2 = 0.655): 0.766 ± 0.009 kJ/mol
excess molar enthalpy ([2]; 413.15 K, 1582 kPa, x2 = 0.704): 0.701 ± 0.008 kJ/mol
excess molar enthalpy ([2]; 413.15 K, 1582 kPa, x2 = 0.754): 0.621 ± 0.0072 kJ/mol
excess molar enthalpy ([2]; 413.15 K, 1582 kPa, x2 = 0.803): 0.526 ± 0.0063 kJ/mol
excess molar enthalpy ([2]; 413.15 K, 1582 kPa, x2 = 0.853): 0.412 ± 0.005 kJ/mol
excess molar enthalpy ([2]; 413.15 K, 1582 kPa, x2 = 0.902): 0.285 ± 0.0038 kJ/mol
excess molar enthalpy ([2]; 413.15 K, 1582 kPa, x2 = 0.951): 0.146 ± 0.0025 kJ/mol

Compound: O=C1CCCCC1 [cyclohexanone]
vapor or sublimation pressure ([1]; 323.15 K): 2.23 ± 0.028 kPa
vapor or sublimation pressure ([1]; 363.15 K): 13.05 ± 0.059 kPa
Normal melting temperature ([1]; visual observation): -27.2 ± 0.2 °C

Results, then the compound that gave them:

excess molar enthalpy ([2]; 363.15 K, 1617 kPa, x2 = 0.062): 0.343 ± 0.0044 kJ/mol
excess molar enthalpy ([2]; 363.15 K, 1617 kPa, x2 = 0.122): 0.635 ± 0.0074 kJ/mol
excess molar enthalpy ([2]; 363.15 K, 1617 kPa, x2 = 0.181): 0.878 ± 0.01 kJ/mol
excess molar enthalpy ([2]; 363.15 K, 1617 kPa, x2 = 0.238): 1.07 ± 0.012 kJ/mol
excess molar enthalpy ([2]; 363.15 K, 1617 kPa, x2 = 0.294): 1.22 ± 0.013 kJ/mol
excess molar enthalpy ([2]; 363.15 K, 1617 kPa, x2 = 0.349): 1.33 ± 0.014 kJ/mol
excess molar enthalpy ([2]; 363.15 K, 1617 kPa, x2 = 0.402): 1.4 ± 0.015 kJ/mol
excess molar enthalpy ([2]; 363.15 K, 1617 kPa, x2 = 0.455): 1.44 ± 0.015 kJ/mol
excess molar enthalpy ([2]; 363.15 K, 1617 kPa, x2 = 0.506): 1.45 ± 0.015 kJ/mol
excess molar enthalpy ([2]; 363.15 K, 1617 kPa, x2 = 0.557): 1.43 ± 0.015 kJ/mol
excess molar enthalpy ([2]; 363.15 K, 1617 kPa, x2 = 0.605): 1.37 ± 0.015 kJ/mol
excess molar enthalpy ([2]; 363.15 K, 1617 kPa, x2 = 0.652): 1.3 ± 0.014 kJ/mol
excess molar enthalpy ([2]; 363.15 K, 1617 kPa, x2 = 0.699): 1.2 ± 0.013 kJ/mol
excess molar enthalpy ([2]; 363.15 K, 1617 kPa, x2 = 0.745): 1.08 ± 0.012 kJ/mol
excess molar enthalpy ([2]; 363.15 K, 1617 kPa, x2 = 0.79): 0.948 ± 0.011 kJ/mol
excess molar enthalpy ([2]; 363.15 K, 1617 kPa, x2 = 0.833): 0.793 ± 0.0089 kJ/mol
excess molar enthalpy ([2]; 363.15 K, 1617 kPa, x2 = 0.876): 0.618 ± 0.0072 kJ/mol
excess molar enthalpy ([2]; 363.15 K, 1617 kPa, x2 = 0.918): 0.427 ± 0.0053 kJ/mol
excess molar enthalpy ([2]; 363.15 K, 1617 kPa, x2 = 0.96): 0.22 ± 0.0032 kJ/mol
excess molar enthalpy ([2]; 413.15 K, 1617 kPa, x2 = 0.062): 0.247 ± 0.004 kJ/mol
excess molar enthalpy ([2]; 413.15 K, 1617 kPa, x2 = 0.122): 0.468 ± 0.0057 kJ/mol
excess molar enthalpy ([2]; 413.15 K, 1617 kPa, x2 = 0.181): 0.655 ± 0.0076 kJ/mol
excess molar enthalpy ([2]; 413.15 K, 1617 kPa, x2 = 0.238): 0.812 ± 0.0091 kJ/mol
excess molar enthalpy ([2]; 413.15 K, 1617 kPa, x2 = 0.294): 0.928 ± 0.01 kJ/mol
excess molar enthalpy ([2]; 413.15 K, 1617 kPa, x2 = 0.349): 1.02 ± 0.011 kJ/mol
excess molar enthalpy ([2]; 413.15 K, 1617 kPa, x2 = 0.402): 1.08 ± 0.012 kJ/mol
excess molar enthalpy ([2]; 413.15 K, 1617 kPa, x2 = 0.455): 1.12 ± 0.012 kJ/mol
excess molar enthalpy ([2]; 413.15 K, 1617 kPa, x2 = 0.506): 1.13 ± 0.012 kJ/mol
excess molar enthalpy ([2]; 413.15 K, 1617 kPa, x2 = 0.556): 1.13 ± 0.012 kJ/mol
excess molar enthalpy ([2]; 413.15 K, 1617 kPa, x2 = 0.605): 1.09 ± 0.012 kJ/mol
excess molar enthalpy ([2]; 413.15 K, 1617 kPa, x2 = 0.652): 1.03 ± 0.011 kJ/mol
excess molar enthalpy ([2]; 413.15 K, 1617 kPa, x2 = 0.699): 0.96 ± 0.011 kJ/mol
excess molar enthalpy ([2]; 413.15 K, 1617 kPa, x2 = 0.745): 0.864 ± 0.0096 kJ/mol
excess molar enthalpy ([2]; 413.15 K, 1617 kPa, x2 = 0.79): 0.758 ± 0.0086 kJ/mol
excess molar enthalpy ([2]; 413.15 K, 1617 kPa, x2 = 0.833): 0.637 ± 0.0074 kJ/mol
excess molar enthalpy ([2]; 413.15 K, 1617 kPa, x2 = 0.876): 0.501 ± 0.006 kJ/mol
excess molar enthalpy ([2]; 413.15 K, 1617 kPa, x2 = 0.918): 0.351 ± 0.0045 kJ/mol
excess molar enthalpy ([2]; 413.15 K, 1617 kPa, x2 = 0.96): 0.18 ± 0.0028 kJ/mol
Compound: CCCCCCC(C)=O [2-octanone] + CCCCCCO

vapor or sublimation pressure ([1]; 323.15 K): 0.7226 ± 0.027 kPa
vapor or sublimation pressure ([1]; 363.15 K): 7.229 ± 0.049 kPa
Normal melting temperature [1]: -44 ± 1 °C
Compound: CCCCCCO [hexan-1-ol]
